How the values were obtained:
ABCA4 null mutant mice [1] = test: HPR given i.p. to ABCA4 null mutant mice for 28 days: serum retinol, ocular retinoids and A2E; format: in vivo
Experimental: In order to explore the role of HPR in the visual cycle, the in vivo effects of HPR in mice have been examined. Thus, HPR was administered to ABCA4 null mutant mice (5-20 mg/kg, i.p. in DMSO) for periods of 28 days. Control mice received only the DMSO vehicle. At the end of the treatment period, the concentrations of retinol and HPR in serum and retinoid content in ocular tissues was measured. […] Thus, the calculated percent reduction for each of the measured retinoids, and A2E, was nearly identical (see FIG. 2).
Genetic crosses of RBP4^−/− mice with ABCA4^−/− mice was undertaken to examine the role of RBP in mediation of retinol levels in serum and ocular tissue.

retinol-RBP-TTR complex = retinol-RBP-TTR complex (Homo sapiens, UniProt P02753); test: High-throughput FRET assay for RBP/TTR interaction; format: binding
Source text: Reduction of serum retinol and RBP are correlated with concomitant reductions in toxic lipofuscin fluorophores. Because compounds that affect RBP-TTR interaction will directly affect fluorophore levels in the eye, a high-throughput screen for small molecules which prevent interaction of RBP with TTR was developed. This screen employs probe-labeled forms of RBP and TTR which participate in a unique fluorescence resonance energy transfer (FRET) event when complexed. Compounds which interfere with RBP-TTR interaction prevent FRET. Sample spectra taken during the course of this type of assay are shown, in FIG. 4. […] The sample is incubated at 37° C. for 30 min and then illuminated with 330 nm light. The emission spectra are shown in the range of 400-600 nm. HPR binds to RBP and prevents interaction with TTR, and here this property of HPR is utilized here to validate the ability of this screen to detect inhibition of RBP-TTR interaction. […] Additionally, the design of this assay permits discrimination between compounds which interact with RBP versus those which interact with TTR. Thus, by using two distinct excitation energies (280 nm and 330 nm, for protein and retinol, respectively) and implementing simultaneous monitoring of the retinol and TTR-probe fluorescence, the “target” of a presumptive small molecule can be easily determined.
Accordingly, HPR was employed at varied concentrations (from 0-4 μM), using the conditions specified in Example 7, to evaluate the high throughput assay.
The mechanism of action underlying this effect can be explained by the disruption of RBP-TTR interactions. In order to explore this possibility and to further validate the RBP-TTR screen, the effects of all-trans retinoic and 13-cis retinoic acid, using the conditions the conditions specified for analysis of HPR, were examined.

wild type mice = test: HPR given to wild type mice for 5 days, then illumination: serum and ocular retinoids; format: in vivo; conditions: 20 mg/kg
Experimental: In order to ensure that the observed effects of HPR in ABCA4 null mice were not due to the genetic mutation, HPR (20 mg/kg, i.p. in DMSO) was administered to wild type mice for 5 days. Control mice received only the DMSO vehicle. On the final day of HPR treatment, the mice were exposed to constant illumination (1000 lux for 10 min) in order “stimulate” the visual cycle to generate visual chromophore. Immediately following the illumination period, the animals were sacrificed and the concentrations of retinoids in serum and ocular tissue were determined. […] As in the previous study, HPR caused a significant reduction in serum retinol (˜55%), ocular retinol (˜40%) and ocular retinal (˜30%). Although HPR did accumulate within ocular tissues during the treatment period (˜5 μM), no effect on LRAT or Rpe65/isomerase activities was observed.

ABCA4 null mutant mice [2] = test: 28-day HPR dose study: serum retinol, A2PE-H2, A2E, retinoids, retinal physiology and histology; format: in vivo
Experimental: ABCA4 null mutant mice were given the indicated dose of HPR in DMSO (i.p.) daily for 28 days (n=4 mice per dosage group). At the end of the study period, blood samples were taken and serum was prepared. Following acetonitrile precipitation of serum proteins, the concentrations of retinol and HPR were determined from the soluble phase by LC/MS (see FIG. 8). Identity of the eluted compounds was confirmed by UV-vis absorption spectroscopy and co-elution of sample peaks with authentic standards.
Group averages from the data shown in panels A-G of FIG. 13 in Example 25 (28 day time points) are plotted to illustrate the strong correlation between increases in serum HPR and decreases in serum retinol (see FIG. 14). Reductions in serum retinol are highly correlated with reductions in A2E and precursor compounds (A2PE-H2). A pronounced reduction in A2PE-H2 in the 2.5 mg/kg dosage group (−47%) is observed when the serum retinol reduction is only 20%. The reason for this disproportionate reduction is related to the inherently lower ocular retinoid content in this group of 2-month old animals compared to the other groups. It is likely that if these animals had been maintained on the 2.5 mg/kg dose for a more prolonged period, a greater reduction in A2E would also be realized.
Panels D-F of FIG. 15 are electrophysiological measurements of rod function (panel D), rod and cone function (panel E) and recovery from photobleaching (panel F).
ABCA4 null mutant mice were given the indicated dose of HPR in DMSO or DMSO alone daily for 28 days (n=16 mice per treatment group). At study onset, mice in the 2.5 mg/kg group were 2 months of age, mice in the other treatment groups were 3 months of age. At the indicated times, representative mice were taken from each group (n=4) for analysis of A2E precursor compounds (see FIG. 13, A2PE-H2, panels A, C and E) and A2E (see FIG. 13, panels B, D and F). Eyes were enucleated, hemisected and lipid soluble components were extracted from the posterior pole by chloroform/methanol-water phase partitioning. Sample extracts were analyzed by LC. Identity of the eluted compounds was confirmed by UV-vis absorption spectroscopy and co-elution of sample peaks with authentic standards. Note: limitations in appropriately age and strain-matched mice in the 10 mg/kg group prevented analysis at the 14-day interval.
Treatment conditions are as described above.

[3] = cited from earlier work
[4] = 5-20 mg/kg, i.p. in DMSO, 28 days

inhibition of retinol-RBP-TTR complex formation (retinol-RBP-TTR complex; varied concentrations 0-4 μM, FIG. 5): dose dependent inhibition | electrophysiology: recovery from photobleaching (ABCA4 null mutant mice [2]; 10 mg/kg daily for 28 days): delayed dark adaptation
Compound: CC1=C(/C=C/C(C)=C/C=C/C(C)=C/C(=O)Nc2ccc(O)cc2)C(C)(C)CCC1 [HPR, N-(4-hydroxyphenyl)retinamide]
ocular retinoids and A2E (ABCA4 null mutant mice [1]; [4]): commensurate reductions in ocular retinoids and A2E | serum retinol as a function of increasing serum HPR (ABCA4 null mutant mice [1]; [4]): Profound reductions in serum retinol | reduction in serum RBP-retinol (ABCA4 null mutant mice [1]; administered dose 10 mg/kg): 50-60% | inhibition of LRAT activity (ABCA4 null mutant mice [1]; mice receiving acute and chronic doses): has not been observed | retinol and TTR-probe fluorescence (loss of RBP-TTR complexation) (retinol-RBP-TTR complex; HPR 1 μM, 0.5 μM RBP + 0.5 μM Alexa430-TTR, 37° C. 30 min, 330 nm excitation): significantly reduced retinol and TTR-probe fluorescence | reduction in ocular retinal (wild type mice; i.p. in DMSO, wild type mice): ~30% | reduction in ocular retinol (wild type mice; i.p. in DMSO, wild type mice): ~40% | reduction in serum retinol (wild type mice; i.p. in DMSO, wild type mice): ~55% | inhibition in synthesis of retinyl esters or visual chromophore (wild type mice; i.p., 1000 lux for 10 min): no significant inhibition | effect on LRAT or Rpe65/isomerase activities (wild type mice; i.p., wild type mice): no effect | reduction in A2PE-H2 (ABCA4 null mutant mice [2]; 2.5 mg/kg dosage group, 28 days): −47% | regeneration of visual chromophore (ABCA4 null mutant mice [2]; 10 mg/kg daily for 28 days): does not affect regeneration of visual chromophore | retinal morphology by light microscopy (ABCA4 null mutant mice [2]; 28 days): No aberrant morphology or compromise of the integrity in retinal cyto structure was observed | level of autofluorescence versus wild type (ABCA4 null mutant mice [2]; abcr null mutant mice, 28 days): comparable to that of an age-matched wild-type animal | lipofuscin autofluorescence in the RPE (ABCA4 null mutant mice [2]; abcr null mutant mice, 28 days): significantly reduces lipofuscin autofluorescence | A2PE-H2 and A2E during the study period (ABCA4 null mutant mice [2]; indicated doses daily for 28 days): dose-dependent reductions | serum retinol (ABCA4 null mutant mice [2]; summary statement): potently and reversibly reduces serum retinol | serum retinol and RBP ([3]; Formelli et al., Torrisi et al.): reductions in serum retinol and RBP | reduction in circulating RBP and retinol ([3]; several investigators, Berni et al. 1993): established in vivo

— US20120202885A1, “METHODS, ASSAYS AND COMPOSITIONS FOR TREATING RETINOL-RELATED DISEASES” (ReVision Therapeutics, Inc., priority 2004, published 2012)
